# Literature values as cited in patent US20190083000A1, “PERSONALIZED FOOD FOR DYSPHAGIA MANAGEMENT” (NESTEC S.A., priority 2016, published 2019).
# Conditions: database Episuite 4.1
Molecule,Volatility: Air/water partition coefficient log K [w/v],Lipophilicity: Oil/Water partition coefficient log Kow [w/v]
"CC(=O)C(C)=O [2,3-Butanedione]",−5.09 w/v,−1.34 w/v
"CCC(=O)C(C)=O [2,3-Pentanedione]",−4.97 w/v,−0.85 w/v
C=C(C)[C@H]1CC=C(C)CC1 [Limonene],0.12 w/v,4.38 w/v
CS [Methanethiol],−0.97 w/v,0.78 w/v

# Second part, the molecule after the results:
Volatility: Air/water partition coefficient log K [w/v],Lipophilicity: Oil/Water partition coefficient log Kow [w/v],Molecule
−2.31 w/v,–,2-Methylpropanal
−2.20 w/v,1.23 w/v,CCC(C)C=O (stereo not drawn) [2-Methylbutanal]
−2.19 w/v,1.23 w/v,CC(C)CC=O [3-Methylbutanal]
−2.56 w/v,−0.17 w/v,CC=O [Acetaldehyde]
−1.49 w/v,0.92 w/v,CSC [Dimethylsulfide]
−1.79 w/v,1.85 w/v,CCCC(=O)OCC [Ethylbutyrate]
−8.47 w/v,1.05 w/v,COc1cc(C=O)ccc1O [Vanillin]
